Consider 33 molecules from patent publication US8802664B2 (Bioproject, priority 2010, dated 2014).

What is called Ki is the equilibrium dissociation constant of an inhibitor or competing ligand from its target.

T1 sequence (Q9H3N8 whole entry): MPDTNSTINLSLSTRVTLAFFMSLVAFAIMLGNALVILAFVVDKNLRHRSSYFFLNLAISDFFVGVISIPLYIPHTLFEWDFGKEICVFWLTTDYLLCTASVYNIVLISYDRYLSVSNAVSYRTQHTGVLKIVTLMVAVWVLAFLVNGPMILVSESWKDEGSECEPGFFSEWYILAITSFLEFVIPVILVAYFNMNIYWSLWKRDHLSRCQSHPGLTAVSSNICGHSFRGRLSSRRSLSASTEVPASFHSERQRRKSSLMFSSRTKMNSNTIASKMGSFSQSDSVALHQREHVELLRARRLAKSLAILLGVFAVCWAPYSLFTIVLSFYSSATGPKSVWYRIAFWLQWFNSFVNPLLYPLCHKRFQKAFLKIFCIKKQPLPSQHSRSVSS

One assay addresses T1, human H4 receptor (Homo sapiens, UniProt Q9H3N8).
T1 construct: expressed in transfected cells
The assay is described as follows: [3H]Histamine binding on membranes of CHO cells stably expressing human H4 receptor.
Conditions: not given
Put shortly: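 First, thawed CHO membranes carrying human H4 were diluted to 20 μg protein per well in pH 7.4 Tris/EDTA buffer. Next, incubation was ended by rapid filtration through PEI-treated GF/B filters followed by cold rinses. Finally, retained radioactivity was counted; 10 μM JNJ 7777120 marked nonspecific binding.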
As to `CN1CCC(OC(c2nc3ccccc3[nH]2)c2cc(I)ccc2F)CC1` (stereo not drawn) [Example 425, 2-[(2-fluoro-5-iodo-phenyl)(1-methylpiperidin-4-yloxy)methyl]-1H-benzimidazole], the Ki or IC50 activity class was below 30 nM.
On to `CN1CCC(OC(c2cccc(C#CC3CN(C(=N)N)C3)c2)c2nc3ccccc3[nH]2)CC1` (stereo not drawn) [Example 426, 3-{3-[(1H-benzimidazol-2-yl)(1-methylpiperidin-4-yloxy)methyl]phenylethynyl}azetidine-1-carboxamidine], for which the Ki or IC50 activity class is below 300 nM.
On the same count and under the same terms, the result for `CN1CCC(OC(c2cccc(SCCN)c2)c2nc3cc(F)ccc3[nH]2)CC1` (stereo not drawn) [Example 428, 2-{3-[(5-fluoro-1H-benzimidazol-2-yl)(1-methylpiperidin-4-yloxy)methyl]phenylsulfanyl}ethylamine] reads below 300 nM; that for `CN1CCC(OC(c2cccc(N3CCC(F)C3)c2)c2nc3ccccc3s2)CC1` (stereo not drawn) [Example 430, 2-[[3-(3-fluoropyrrolidin-1-yl)phenyl](1-methylpiperidin-4-yloxy)methyl]benzothiazole], below 30 nM.
Regarding `CN1CCC(OC(c2cccc(OCC=CCN)c2)c2nc3ccccc3s2)CC1` (stereo not drawn) [Example 431, 4-{3-[benzothiazol-2-yl(1-methylpiperidin-4-yloxy)methyl]phenoxy}but-2-enylamine], the Ki or IC50 activity class is below 30 nM.
The same measure, in the same setting: the figure for `CN1CCC(OC(c2cccc(SCC(=O)NCCN)c2)c2nc3ccccc3[nH]2)CC1` (stereo not drawn) [Example 436, N-(2-aminoethyl)-2-{3-[(1H-benzimidazol-2-yl)(1-methylpiperidin-4-yloxy)methyl]phenylsulfanyl}acetamide] is below 30 nM; for `CN1CCC(OC(c2cccc(C#CCCCN)c2)c2nc3cc(F)ccc3[nH]2)CC1` (stereo not drawn) [Example 438, 5-{3-[(5-fluoro-1H-benzimidazol-2-yl)(1-methylpiperidin-4-yloxy)methyl]phenyl}pent-4-ynylamine] it is below 30 nM; for `CN1CCC(OC(c2cccc(C#CCCCCN)c2)c2nc3cc(F)ccc3[nH]2)CC1` (stereo not drawn) [Example 439, 6-{3-[(5-fluoro-1H-benzimidazol-2-yl)(1-methylpiperidin-4-yloxy)methyl]phenyl}hex-5-ynylamine] it is below 30 nM.
The same measure, in the same setting: the figure for `CN1CCC(OC(c2cccc(SCCCCN)c2)c2nc3cc(F)ccc3[nH]2)CC1` (stereo not drawn) [Example 440, 4-{3-[(5-fluoro-1H-benzimidazol-2-yl)(1-methylpiperidin-4-yloxy)methyl]phenylsulfanyl}butylamine] is below 30 nM; for `CN1CCC(OC(c2cccc(SCCCNC(=N)N)c2)c2nc3ccccc3[nH]2)CC1` (stereo not drawn) [Example 441, N-(3-{3-[(1H-benzimidazol-2-yl)(1-methylpiperidin-4-yloxy)methyl]phenylsulfanyl}propyl)guanidine] it is below 30 nM; for `CN1CCC(OC(c2nc3ccccc3[nH]2)c2cc(C#CCCCN)ccc2F)CC1` (stereo not drawn) [Example 442] it is below 30 nM.
`CN1CCC(OC(c2cccc(N3CCC(=O)C3)c2)c2nc3ccccc3s2)CC1` (stereo not drawn) [Example 443, 1-{3-[benzothiazol-2-yl(1-methylpiperidin-4-yloxy)methyl]phenyl}pyrrolidin-3-one] displayed a Ki or IC50 activity class below 30 nM.
`CN1CCC(OC(c2cccc(SCCCCNC(=N)N)c2)c2nc3ccccc3[nH]2)CC1` (stereo not drawn) [Example 444, N-(4-{3-[(1H-benzimidazol-2-yl)(1-methylpiperidin-4-yloxy)methyl]phenylsulfanyl}butyl)guanidine] had a Ki or IC50 activity class below 300 nM.
On the same count and under the same terms, the figure for `CN1CCC(OC(c2cccc(SCCCCCO)c2)c2nc3ccccc3[nH]2)CC1` (stereo not drawn) [Example 445, 5-{3-[(1H-benzimidazol-2-yl)(1-methylpiperidin-4-yloxy)methyl]phenylsulfanyl}pentan-1-ol] is below 300 nM; for `CN1CCC(OC(c2ccc([N+](=O)[O-])cc2)c2nc3ccccc3[nH]2)CC1` (stereo not drawn) [Example 447, 2-[(1-methylpiperidin-4-yloxy)(4-nitrophenyl)methyl]-1H-benzimidazole] it is below 1000 nM.
Still for that read-out and setting: the figure for `CN1CCC(OC(c2cccc(Oc3cccnc3)c2)c2nc3ccccc3s2)CC1` (stereo not drawn) [Example 448, 2-{(1-methylpiperidin-4-yloxy)[3-(pyridin-3-yloxy)phenyl]methyl}benzothiazole] is below 300 nM.
The molecule `CN1CCC(COC(c2cccc(Br)c2)c2nc3cc(F)ccc3[nH]2)C1` (stereo not drawn) [Example 449, 2-[(3-bromophenyl)(1-methylpyrrolidin-3-ylmethoxy)methyl]-5-fluoro-1H-benzimidazole] yielded a Ki or IC50 activity class below 30 nM.
On the same count and under the same terms, the result for `CN1CCC(OC(c2cccc(N3CC(N(C)C)C3)c2)c2nc3ccccc3s2)CC1` (stereo not drawn) [Example 450] reads below 1000 nM; that for `CN1CCC(OC(c2cccc(SCCCCCCN)c2)c2nc3ccccc3[nH]2)CC1` (stereo not drawn) [Example 451], below 300 nM; that for `CN1CCC(OC(c2cccc(N3CCC(O)C3)c2)c2nc3ccccc3[nH]2)CC1` (stereo not drawn) [Example 452], below 300 nM.
As to `CN1CCC(OC(c2cccc(OC3CCC(N)C3)c2)c2nc3ccccc3s2)CC1` (stereo not drawn) [Example 453], the Ki or IC50 activity class is below 30 nM.
As for `CN1CCC(OC(c2ccc(N)cc2)c2nc3ccccc3[nH]2)CC1` (stereo not drawn) [Example 455, 4-[(1H-benzimidazol-2-yl)(1-methylpiperidin-4-yloxy)methyl]aniline], the Ki or IC50 activity class is below 30 nM.
The same measure, in the same setting: the figure for `Nc1ccc(C(OC2CCNCC2)c2nc3ccccc3[nH]2)cc1` (stereo not drawn) [Example 456, 4-[(1H-benzimidazol-2-yl)(piperidin-4-yloxy)methyl]aniline] is below 1000 nM; for `CN1CCC(OC(c2cccc(SCC3CNC(=O)O3)c2)c2nc3ccccc3[nH]2)CC1` (stereo not drawn) [Example 457] it is below 30 nM; for `CN1CCC(OC(c2cccc(SCCCCCCNC(=N)N)c2)c2nc3ccccc3[nH]2)CC1` (stereo not drawn) [Example 458] it is below 300 nM.
On the same count and under the same terms, the figure for `CN1CCC(OC(c2cccc(SCC(=O)NCCN)c2)c2nc3cc(F)ccc3[nH]2)CC1` (stereo not drawn) [Example 459] is below 30 nM; for `CN1CCC(OC(c2cccc(N3CCC(O)(C(F)(F)F)C3)c2)c2nc3ccccc3s2)CC1` (stereo not drawn) [Example 460, 1-{3-[benzothiazol-2-yl(1-methylpiperidin-4-yloxy)methyl]phenyl}-3-trifluoromethylpyrrolidin-3-ol] it is below 1000 nM.
The same measure, in the same setting: the figure for `CN1CCC(OC(c2cccc(OC3CCNC3)c2)c2nc3ccccc3[nH]2)CC1` (stereo not drawn) [Example 461] is below 300 nM; for `CN1CCC(COC(c2cccc(C#CCCCN)c2)c2nc3cc(F)ccc3[nH]2)C1` (stereo not drawn) [Example 462] it is below 300 nM; for `CN1CCC(OC(c2cccc(SCC3=NCCN3)c2)c2nc3cc(F)ccc3[nH]2)CC1` (stereo not drawn) [Example 463] it is below 1000 nM.

The assay is the same for the next values; noted with them: human H4 receptor; evaluated in the GTPγ[35S] assay or in the [3H]histamine binding assay (not stated which per compound); Ki or IC50 class.
For the molecule `CN1CCC(OC(c2cccc(N3CCC(N)C3)c2)c2nc3ccccc3s2)CC1` (stereo not drawn) [Example 429, 1-{3-[benzothiazol-2-yl(1-methylpiperidin-4-yloxy)methyl]phenyl}pyrrolidin-3-ylamine], the Ki or IC50 activity class was below 300 nM.
The molecule `CN1CCC(OC(c2cccc(N3CCC(F)C3)c2)c2nc3ccccc3s2)CC1` (stereo not drawn) [Example 454] gave a Ki or IC50 activity class below 30 nM.

The assay is the same for the next values; noted with them: read-out: Activity (Ki or IC50).
For the molecule `CN1CCC(OC(c2cccc(SCCNC(=N)NC(=O)C(C)(C)C)c2)c2nc3ccccc3[nH]2)CC1` (stereo not drawn) [Example 446], the Ki is below 300 nM.
